For one assay, the system named is Staphylococcus aureus. In words: Antibacterial activity against Staphylococcus aureus ATCC 25825 after 24 hrs by twofold serial dilution method. The class given is functional. As to conditions: ATCC 25825, 24 h.
The test system of the next assay is Bacillus subtilis. The assay is described as follows: Antibacterial activity against Bacillus subtilis ATCC 451 after 24 hrs by twofold serial dilution method. The class given is functional. As to conditions: ATCC 451, 24 h.
In the next assay the test system is Salmonella typhi. In words: Antibacterial activity against Salmonella typhi ATCC 24915 after 24 hrs by twofold serial dilution method. The class given is functional, Salmonella enterica subsp. enterica serovar Typhi. As to conditions: Salmonella enterica, ATCC 24915, 24 h.
A further assay relates to Escherichia coli. In words: Antibacterial activity against Escherichia coli ATCC 25835 after 24 hrs by twofold serial dilution method. The assay is classed as functional. As to conditions: ATCC 25835, 24 h.
For assay [1], the system named is Klebsiella pneumoniae. The assay is described as follows: Antibacterial activity against Klebsiella pneumoniae ATCC 15490 after 24 hrs by twofold serial dilution method. The class given is functional. As to conditions: ATCC 15490, 24 h.
The test system of the next assay is Cryptococcus neoformans. In words: Antifungal activity against Cryptococcus neoformans ATCC 3312 after 72 to 96 hrs by twofold serial dilution method. The class given is functional.
The next assay deals with Candida albicans. The assay is described as follows: Antifungal activity against Candida albicans ATCC 3122 by twofold serial dilution method. The assay is classed as functional.
The next assay concerns Rhizopus. In words: Antifungal activity against Rhizopus sp. ATCC 2915 after 72 to 96 hrs by twofold serial dilution method. The assay is classed as functional.
In a further assay the test system is Aspergillus niger. In words: Antifungal activity against Aspergillus niger ATCC 598 after 72 to 96 hrs by twofold serial dilution method. The class given is functional.
Another assay concerns Aspergillus flavus. The assay is described as follows: Antifungal activity against Aspergillus flavus ATCC 485 after 72 to 96 hrs by twofold serial dilution method. The assay is classed as functional.
Assay [2] relates to Klebsiella pneumoniae. In words: Antibacterial activity against Klebsiella pneumoniae ATCC 15490 at 200 ug/ml after 24 hrs by twofold serial dilution method. The class given is functional, organism-based.

In brackets after ≈: the same amount, converted by molar mass. Activity calls are given as the source filed them. The rule behind the calls is not given here.

A word on the MIC: it is the lowest concentration that inhibits growth of the organism. A low value points to inhibition by little substance. Take `O=C(c1cccs1)[C@H]1[C@H](c2cccc(Br)c2)C2CCCN2[C@]12C(=O)Nc1ccccc12` (stereo partly drawn): the MIC is 25 µg/mL (≈ 50.7 µM) against Staphylococcus aureus; 25 µg/mL (≈ 50.7 µM) against Bacillus subtilis; 100 µg/mL (≈ 203 µM) against Salmonella typhi; 50 µg/mL (≈ 101 µM) against Escherichia coli; 100 µg/mL (≈ 203 µM) in the assay with Klebsiella pneumoniae [1]; 25 µg/mL (≈ 50.7 µM) in the assay with Cryptococcus neoformans. In addition, the MIC worked out at 50 µg/mL (≈ 101 µM) against Candida albicans, 12.5 µg/mL (≈ 25.3 µM) in the assay with Rhizopus, 100 µg/mL (≈ 203 µM) in the assay with Aspergillus niger and 200 µg/mL (≈ 405 µM) against Aspergillus flavus.
Turning to `Cc1ccc([C@@H]2C3CCCN3[C@]3(C(=O)Nc4ccccc43)[C@H]2C(=O)c2cccs2)cc1` (stereo partly drawn), the MIC in the assay with Staphylococcus aureus amounted to 50 µg/mL (≈ 117 µM); with Bacillus subtilis it was 25 µg/mL (≈ 58.3 µM); against Salmonella typhi it was 6.25 µg/mL (≈ 14.6 µM); against Escherichia coli, 50 µg/mL (≈ 117 µM); against Klebsiella pneumoniae [1] it was 100 µg/mL (≈ 233 µM); against Cryptococcus neoformans it was 100 µg/mL (≈ 233 µM). Further, the MIC in the assay on Candida albicans was 100 µg/mL (≈ 233 µM); with Rhizopus it was 100 µg/mL (≈ 233 µM); in the assay on Aspergillus flavus, 25 µg/mL (≈ 58.3 µM).
Consider `COc1ccc([C@@H]2C3CCCN3[C@]3(C(=O)Nc4ccccc43)[C@H]2C(=O)c2cccs2)cc1` (stereo partly drawn), for which the MIC is 6.25 µg/mL (≈ 14.1 µM) with Staphylococcus aureus; 50 µg/mL (≈ 112 µM) against Bacillus subtilis; 100 µg/mL (≈ 225 µM) against Salmonella typhi; 100 µg/mL (≈ 225 µM) in the assay on Escherichia coli; 25 µg/mL (≈ 56.2 µM) in the assay with Klebsiella pneumoniae [1]; 50 µg/mL (≈ 112 µM) in the assay on Cryptococcus neoformans. In addition, the MIC in the assay with Candida albicans worked out at 100 µg/mL (≈ 225 µM); against Rhizopus it was 50 µg/mL (≈ 112 µM); against Aspergillus niger, 100 µg/mL (≈ 225 µM); in the assay with Aspergillus flavus, 25 µg/mL (≈ 56.2 µM).
Take `C[C@@H]1[C@H](O)[C@@H](C)/C=C/C=C/C=C/C=C/C=C/C=C/C=C/[C@H](O[C@@H]2O[C@H](C)[C@@H](O)[C@H](N)[C@@H]2O)C[C@@H]2O[C@](O)(C[C@@H](O)C[C@@H](O)[C@H](O)CC[C@@H](O)C[C@@H](O)CC(=O)O[C@H]1C)C[C@H](O)[C@H]2C(=O)O` [AMPHOTERICIN B]: the MIC with Cryptococcus neoformans turned out to be 25 µg/mL (≈ 27.1 µM); against Candida albicans, 25 µg/mL (≈ 27.1 µM); against Rhizopus, 25 µg/mL (≈ 27.1 µM); in the assay with Aspergillus niger, 50 µg/mL (≈ 54.1 µM); with Aspergillus flavus it was 50 µg/mL (≈ 54.1 µM).
`O=C(c1cccs1)[C@H]1[C@H](c2ccc(Cl)cc2)C2CCCN2[C@]12C(=O)Nc1ccccc12` (stereo partly drawn): the minimal inhibitory concentration (MIC) with Staphylococcus aureus was determined as 6.25 µg/mL (≈ 13.9 µM); in the assay on Bacillus subtilis it was 12.5 µg/mL (≈ 27.8 µM); against Salmonella typhi, 6.25 µg/mL (≈ 13.9 µM); in the assay with Escherichia coli, 25 µg/mL (≈ 55.7 µM); against Cryptococcus neoformans it was 12.5 µg/mL (≈ 27.8 µM); with Candida albicans, 25 µg/mL (≈ 55.7 µM). In addition, the results for the MIC in the assay on Rhizopus, in the assay on Aspergillus niger and with Aspergillus flavus were 6.25 µg/mL (≈ 13.9 µM), 25 µg/mL (≈ 55.7 µM) and 100 µg/mL (≈ 223 µM), respectively. For the same molecule, the result in the assay with Klebsiella pneumoniae [2] was inactive.
As to `CN(C)c1ccc([C@@H]2C3CCCN3[C@]3(C(=O)Nc4ccccc43)[C@H]2C(=O)c2cccs2)cc1` (stereo partly drawn), the MIC came to 200 µg/mL (≈ 437 µM) in the assay with Staphylococcus aureus; 50 µg/mL (≈ 109 µM) against Bacillus subtilis; 100 µg/mL (≈ 219 µM) against Salmonella typhi; 100 µg/mL (≈ 219 µM) against Escherichia coli; 50 µg/mL (≈ 109 µM) against Klebsiella pneumoniae [1]; 50 µg/mL (≈ 109 µM) with Cryptococcus neoformans. Moreover, the MIC was found to be 100 µg/mL (≈ 219 µM) against Candida albicans, 50 µg/mL (≈ 109 µM) against Rhizopus, 100 µg/mL (≈ 219 µM) in the assay on Aspergillus niger and 200 µg/mL (≈ 437 µM) against Aspergillus flavus.
Turning to `O=C(c1cccs1)[C@H]1[C@H](c2ccc([N+](=O)[O-])cc2)C2CCCN2[C@]12C(=O)Nc1ccccc12` (stereo partly drawn), the minimal inhibitory concentration (MIC) in the assay on Staphylococcus aureus is 100 µg/mL (≈ 218 µM); with Bacillus subtilis it was 50 µg/mL (≈ 109 µM); against Salmonella typhi it was 100 µg/mL (≈ 218 µM); against Escherichia coli, 200 µg/mL (≈ 435 µM); against Klebsiella pneumoniae [1] it was 50 µg/mL (≈ 109 µM); with Cryptococcus neoformans it was 100 µg/mL (≈ 218 µM). For the same molecule, the minimal inhibitory concentration (MIC) against Candida albicans stood at 200 µg/mL (≈ 435 µM); against Rhizopus, 50 µg/mL (≈ 109 µM); in the assay on Aspergillus niger, 100 µg/mL (≈ 218 µM); with Aspergillus flavus it was 200 µg/mL (≈ 435 µM).
On to `O=C(c1cccs1)[C@H]1[C@H](c2ccccc2)C2CCCN2[C@]12C(=O)Nc1ccccc12` (stereo partly drawn), for which the MIC in the assay on Staphylococcus aureus was found to be 50 µg/mL (≈ 121 µM); against Bacillus subtilis, 100 µg/mL (≈ 241 µM); in the assay with Salmonella typhi, 100 µg/mL (≈ 241 µM); in the assay with Escherichia coli, 100 µg/mL (≈ 241 µM); against Klebsiella pneumoniae [1], 200 µg/mL (≈ 482 µM); in the assay on Cryptococcus neoformans it was 50 µg/mL (≈ 121 µM). In addition, the MIC against Candida albicans was 100 µg/mL (≈ 241 µM); in the assay on Rhizopus, 200 µg/mL (≈ 482 µM); against Aspergillus flavus it was 200 µg/mL (≈ 482 µM).
`CN[C@@H]1[C@H](O[C@H]2[C@H](O[C@H]3[C@H](O)[C@@H](O)[C@H](N=C(N)N)[C@@H](O)[C@@H]3N=C(N)N)O[C@@H](C)[C@]2(O)C=O)O[C@@H](CO)[C@H](O)[C@H]1O` [STREPTOMYCIN]: the MIC in the assay with Staphylococcus aureus worked out at 50 µg/mL (≈ 86 µM); against Bacillus subtilis it was 12.5 µg/mL (≈ 21.5 µM); in the assay with Salmonella typhi, 50 µg/mL (≈ 86 µM); with Escherichia coli, 12.5 µg/mL (≈ 21.5 µM); in the assay with Klebsiella pneumoniae [1], 25 µg/mL (≈ 43 µM).
As for `O=C(c1cccs1)[C@H]1[C@H](c2ccc(F)cc2)C2CCCN2[C@]12C(=O)Nc1ccccc12` (stereo partly drawn), the MIC is 6.25 µg/mL (≈ 14.5 µM) with Staphylococcus aureus; 25 µg/mL (≈ 57.8 µM) in the assay with Bacillus subtilis; 6.25 µg/mL (≈ 14.5 µM) in the assay on Salmonella typhi; 50 µg/mL (≈ 116 µM) in the assay on Escherichia coli; 25 µg/mL (≈ 57.8 µM) with Cryptococcus neoformans; 6.25 µg/mL (≈ 14.5 µM) against Candida albicans. Further, the MIC against Rhizopus amounted to 6.25 µg/mL (≈ 14.5 µM); against Aspergillus niger it was 200 µg/mL (≈ 462 µM); against Aspergillus flavus, 100 µg/mL (≈ 231 µM). Besides, the outcome in the assay with Klebsiella pneumoniae [2] was inactive.
